From patent US8486986B2, “Microbiocides” (Syngenta Crop Protection LLC, priority 2007, dated 2013) come the findings set out here.

The melting point is the temperature, or range, at which the solid turns liquid. Consider `CC(Cc1c(-c2ccc(F)cc2)sc(Cl)c1Cl)NC(=O)c1cn(C)nc1C(F)(F)F` (stereo not shown) [Compound 7.72, 1-methyl-3-trifluoromethyl-1H-pyrazole-4-carboxylic acid {2-[4,5-dichloro-2-(4-fluorophenyl)-thiophen 3-yl]1-methylethyl}amide], for which the melting point was in the range of 126 to 130 °C.
